# Experiments:
# mice with cGVHD [1] = assay type: in vivo; details: for survival after 60 days: mice given BM and T-cells, treatment began 28 days post-transplant (Day 28-56), JQ5 or UNC1999 75 mg/Kg 3 days a week, Bcl6 peptidomimetic every day (Table 3, FIG. 8)
# Method: B10.BR recipients were conditioned with cytoxan on days −3 and −2 (120 mg/kg/day i.p.). On day −1, recipients received TBI by x-ray (8.3 Gy). B6 donor BM was T-cell depleted with anti-Thy1.2 mAb followed by rabbit complement. T-cells were purified from spleens by incubation with biotin-labeled anti-CD19, anti-CD11b, anti-CD11c, anti-NK1.1 and anti-γδTCR (eBioscience), followed by strepavidin beads and depletion with magnetic column (StemCell Technologies). On day 0, recipients received 10×10^6 T cell depleted BM cells with or without allogeneic spleen purified T cells (0.075-0.1×106), Weights of individual mice were recorded weekly. Where indicated, recipients in BM and T cell groups were given EZH2 inhibitor (either JQ-EZH2-5 ([…]) or JQ1 (50 μg/animal/Daily) in 10% Hydroxypropyl-beta-cyclodextrin and DMSO in a 9:[…]) in PBS.
# Animals in this experiment were transplanted with wild-type BM and T-cells and then treated with either Vehicle, EZH2 inhibitor (JQ5 or UNC1999) or Bcl6 inhibitor. Administration of UNC1999 was toxic, resulting in less than 40% survival 63 days post-transplant. (FIG. 8).
# mice with cGVHD [2] = assay: Pulmonary function tests (lung resistance, elastance, compliance; forced oscillation technique, Scireq Flexivent); assay type: in vivo, mouse (B10.BR recipients)
# mice with cGVHD [3] = assay: as above; assay type: in vivo, mouse (B10.BR recipients); remark: listed apart in the source
# Method: B10.BR recipients were conditioned with cytoxan on days −3 and −2 (120 mg/kg/day i.p.). On day −1, recipients received TBI by x-ray (8.3 Gy). B6 donor BM was T-cell depleted with anti-Thy1.2 mAb followed by rabbit complement. T-cells were purified from spleens by incubation with biotin-labeled anti-CD19, anti-CD11b, anti-CD11c, anti-NK1.1 and anti-γδTCR (eBioscience), followed by strepavidin beads and depletion with magnetic column (StemCell Technologies). On day 0, recipients received 10×10^6 T cell depleted BM cells with or without allogeneic spleen purified T cells (0.075-0.1×106), Weights of individual mice were recorded weekly. Where indicated, recipients in BM and T cell groups were given EZH2 inhibitor (either JQ-EZH2-5 (75 μg/animal/3 times a week) or JQ1 (50 μg/animal/Daily) in 10% Hydroxypropyl-beta-cyclodextrin and DMSO in a 9:1 ratio) or Bcl 79-6 (50 μg/animal/three times a week) in PBS.
# (§1) In particular, B10.BR mice were conditioned with 120 mg/Kg of cyclophosphamide on day −3 and −2 and subjected to total body irradiation (830X) on day −1. On Day 0 mice were transplanted with wild type B6 bone marrow with or without splenocytes or purified splenic T cells. Day 28 following transplantation, mice were either given vehicle control or JQ5 (75 mg/Kg 3× a week) until day 56. On Day 60 mice were subjected to forced oscillation technique on the Scireq Flexivent system. Tissues were harvested and analyzed for collagen deposition by trichrome staining, Ig deposition, presence of germinal centers, germinal center B cells, and T follicular helper cells.
# as §1, with “Pulmonary function tests were performed on animals treated with Bcl 79-6. The presence of Germinal Center B cells and fibrosis in lungs were also assessed.” for “In particular,”, “Wild Type” for “wild type”, “Bone” for “bone”, “Bcl6 79-6 (50” for “JQ5 (75”, “Daily)” for “3× a week)”, “cells” for “cells,”
# mice with cGVHD [4] = assay: Collagen deposition in the lungs (trichrome staining); assay type: in vivo, mouse (B10.BR recipients); details: for collagen deposition in the lungs vs Vehicle-treated mice: Table 3 experiment, treatment Day 28-56, JQ5 75 mg/Kg 3 days a week, Bcl6 peptidomimetic every day (FIG. 10, 13)
# Method: (§2) B10.BR recipients were conditioned with cytoxan on days −3 and −2 (120 mg/kg/day i.p.). On day −1, recipients received TBI by x-ray (8.3 Gy). B6 donor BM was T-cell depleted with anti-Thy1.2 mAb followed by rabbit complement. T-cells were purified from spleens by incubation with biotin-labeled anti-CD19, anti-CD11b, anti-CD11c, anti-NK1.1 and anti-γδTCR (eBioscience), followed by strepavidin beads and depletion with magnetic column (StemCell Technologies). On day 0, recipients received 10×10^6 T cell depleted BM cells with or without allogeneic spleen purified T cells (0.075-0.1×106), Weights of individual mice were recorded weekly. Where indicated, recipients in BM and T cell groups were given EZH2 inhibitor (either JQ-EZH2-5 (75 μg/animal/3 times a week) or JQ1 (50 μg/animal/Daily) in 10% Hydroxypropyl-beta-cyclodextrin and DMSO in a 9:[…]) in PBS.
# as §1
# as §1, with “Pulmonary function tests were performed on animals treated with Bcl 79-6. The presence of Germinal Center B cells and fibrosis in lungs were also assessed.” for “In particular,”, “Wild Type” for “wild type”, “Bone” for “bone”, “Bcl6 79-6 (50” for “JQ5 (75”, “Daily)” for “3× a week)”, “cells” for “cells,”
# germinal center B cells = assay: Germinal center B cells in cGVHD mice; assay type: in vivo, mouse (B10.BR recipients); details: for germinal center B cells in the spleens: Table 3 experiment, Bcl6 peptidomimetic every day, Day 28-56 (FIG. 12)
# Method: as §2, §1
# Pulmonary function tests were performed on animals treated with Bcl 79-6. The presence of Germinal Center B cells and fibrosis in lungs were also assessed. B10.BR mice were conditioned with 120 mg/Kg of cyclophosphamide on day −3 and −2 and subjected to total body irradiation (830X) on day −1. […] Tissues were harvested and analyzed for collagen deposition by trichrome staining, Ig deposition, presence of germinal centers, germinal center B cells and T follicular helper cells.
# [5] = additional experiments (not shown), JQ1 treatment
# [6] = Table 6 experiment, Bcl6 79-6 50 mg/Kg Daily, day 28 until day 56, measured Day 60 (FIG. 19)
# [7] = Table 6 experiment, Bcl6 79-6 50 mg/Kg Daily, day 28 until day 56 (FIG. 19), 50 mg/kg
SMILES,survival after 60 days (mice with cGVHD [1]),"survival 63 days post-transplant (mice with cGVHD [1]; mice given wild-type BM and T-cells, 75 mg/KG UNC1999 3 days a week, Day 28-56 (Table 3, FIG. 8))","pulmonary function vs Vehicle-treated control mice (mice with cGVHD [2]; Table 4 experiment, JQ1 50 mg/Kg Daily, Day 28-56 (FIG. 14), 50 mg/kg)",compliance in pulmonary function tests vs vehicle-treated control animals (mice with cGVHD [3]; [5]),elastance in pulmonary function tests vs vehicle-treated control animals (mice with cGVHD [3]; [5]),resistance in pulmonary function tests vs vehicle-treated control animals (mice with cGVHD [3]; [5]),"collagen deposition in the lungs vs Vehicle-treated control mice (mice with cGVHD [4]; Table 4 experiment, JQ1 50 mg/Kg Daily, Day 28-56 (FIG. 15), 50 mg/kg)",lung compliance (mice with cGVHD [2]; [6]),lung elastance (mice with cGVHD [2]; [6]),lung resistance (mice with cGVHD [2]; [6]),pulmonary function (mice with cGVHD [2]; [6]),germinal center B cells in the spleens (germinal center B cells),germinal center B cells in the spleens (germinal center B cells; listed as Bcl6 79-6),Germinal Center B cells (germinal center B cells; [7]),"pulmonary function (lung resistance, elastance and compliance) vs Vehicle-treated mice (mice with cGVHD [3]; Table 3 experiment, treatment Day 28-56, JQ5 75 mg/Kg 3 days a week, Bcl6 peptidomimetic every day (FIG. 9, 11))",collagen deposition in the lungs vs Vehicle-treated mice (mice with cGVHD [4]),collagen deposition in the lungs vs Vehicle-treated mice (mice with cGVHD [4]; listed as Bcl6 79-6),collagen in Trichrome staining (lungs) (mice with cGVHD [4]; [7])
CCCc1cc(C)[nH]c(=O)c1CNC(=O)c1cc(-c2ccc(N3CCN(C(C)C)CC3)nc2)cc2c1cnn2C(C)C [UNC1999],< 40%,less than 40%,–,–,–,–,–,–,–,–,–,–,–,–,–,–,–,–
Cc1sc2c(c1C)C(c1ccc(Cl)cc1)=N[C@@H](CC(=O)OC(C)(C)C)c1nnc(C)n1-2 [JQ1],–,–,improves pulmonary function,significantly increased,decreased,decreased,decreased collagen deposition,–,–,–,–,–,–,–,–,–,–,–
O=C(O)CC(C(=O)O)N1C(=O)/C(=C2/C(=O)Nc3ccc(Br)cc32)SC1=S (stereo not shown) [79-6],100%,–,–,–,–,–,–,increase,decrease,decrease,Restored pulmonary function,reduction,decreased germinal center B cells,decreased Germinal Center B cells,improved pulmonary function,decreased,decreased collagen deposition,decreased collagen
